Converted amounts (≈) assume the structure as drawn. Blank lines part the entries; values can stand above or below the compound they belong to.
Assays:
[1] = Solubility of loop diuretics in the acidic to maximum neutral aqueous formulations; settings: acidic to neutral aqueous carvedilol injection solutions, aqueous with cosolvent or surfactant or cyclodextrin
physchem [2] = settings: pH 6.1, water
lipid peroxidation = settings: reported by Yue et al.; cited from earlier work
physchem [3] = settings: aqueous with cosolvent or surfactant or cyclodextrin

solubility [1]: 1000 to 3000 µg/mL (≈ 2700 to 8090 µM)
SMILES: NS(=O)(=O)c1cc(-c2nnn[nH]2)c(NCc2cccs2)cc1Cl [azosemide]

solubility (physchem [2]): ~2 µg/mL (≈ 4.92 µM)
solubility of carvedilol in water (pH 6.1): about 0.2 mg/100 ml
pH value resulting from saturated solution in water (water): 6.1
SMILES: COc1ccccc1OCCNCC(O)COc1cccc2[nH]c3ccccc3c12 (stereo not drawn) [carvedilol, 1-(9H-carbazol-4-yloxy)-3-[[2-(2-methoxyphenoxy)ethyl]amino]-2-propanol]
antioxidative activity, lipid peroxidation (lipid peroxidation): inhibit lipid peroxidation

solubility (physchem [3]): 1000 to 2000 µg/mL (≈ 2870 to 5740 µM)
SMILES: Cc1cccc(Nc2ccncc2S(=O)(=O)NC(=O)NC(C)C)c1 [Torasemide]

Reference: US6664284B2, “Stabilized carvedilol injection solution” (Roche Diagnostics GmbH, priority 1998, dated 2003)
